Measured values: US11419909B2, “Compositions and methods for maintaining or enhancing homeostasis or function of female lower reproductive tract” (FAIRHAVEN HEALTH, LLC, priority 2016, dated 2022)

Conditions: plant derived raw materials

O=C[C@H](O)[C@@H](O)[C@H](O)CO [D-Xylose source 1, D-Xylose]
Endotoxin Level: <0.07 EU/mg
